Assay results: patent publication US11932870B2, “Compositions and methods for immune cell modulation in adoptive immunotherapies” (Fate Therapeutics, Inc., priority 2016, dated 2024)
Where a name gives a salt, the structure may show the parent alone.

How the values were obtained:
viable CD4+ population = experiment: T cell compound screen: CCR7+CD62L+ cells in the viable CD4+ population (flow cytometry); assay type: cell-based, human; details: 10 μM, about 6 days; for CD4 Hit: anti-CD3/anti-CD28 beads, hit = Z-score > +2 for percent or absolute number CCR7+CD62L+ in CD4+; for number or ratio of cells co-expressing CCR7 and CD62L: viable CD4+ population
Text: (§1) In Vitro T Cell Culture. Fresh leukopaks (AllCells, Alameda, CA) were obtained from healthy donors, from which T cells were negatively selected using the EasySep Human T cell Enrichment Kit (Stem Cell Technologies, Vancouver, Canada). The freshly isolated T cells were aliquoted and cryopreserved. On the day the screens were initiated, T cells were thawed and washed into X-Vivo 15 with 5% human AB serum, IL-2, pen/strep, and additional supplements. Cells were dispensed into flat-bottom 384-well plates at 5×10^5 cells/ml with anti-CD3/anti-CD28 beads. Individual compounds were added at a final concentration of 10 μM to each well from column 3 to column 22 of each plate. Positive and negative controls were added to additional wells. Cells were incubated for about 6 days at 37 degrees with 5% CO2.
(§2) Flow Cytometry. On Day 6 of culture, cells were stained with a fixable viability marker and fluorophore-conjugated antibodies: CD3, CD4, CD8, CD45RA, CD45RO, CD62L, CCR7, CD27, and CD122 (BD Biosciences, San Jose, CA; and BioLegend, San Diego, CA). Fluorescent absolute counting beads (Spherotech, Lake Forest, IL) were added just prior to acquisition. Data acquisition was performed on a BD Fortessa X-20 (BD Biosciences) and data were analyzed using Treestar software (FlowJo, Ashland, OR) and Spotfire (Tibco, Boston, MA).
(§3) These cells are characterized by expression of CCR7 and CD62L. Therefore, cells co-expressing both of these identifying markers were evaluated. Within the viable CD4+ population and viable CD8+ population, the percent of cells co-expressing CCR7 and CD62L was determined. The expression of either CD62L or CCR7 on T cells, as indicative of the desired T cell subsets, have been described as having favorable functional characteristics for CAR-T cell therapy, and potentially other adoptive T cell therapies.
(§4) The number of events in each of these gates relative to the number of absolute counting beads in each sample was calculated, defining a measure of the absolute number of naïve, stem cell memory, or central memory T cells within the CD4+ and/or CD8+ populations. A z-Score relative to the screened compound samples within each 384-well plate was calculated for each of these four values: 1) percent CCR7+CD62L+in CD4+, 2) percent CCR7+CD62L+in CD8+, 3) absolute relative number of CCR7+CD62L+in CD4+, and 4) absolute number of CCR7+CD62L+in CD8+(FIGS. 1A and 1i). Z-scores were also calculated for the percent viability of all cells within each sample and the relative absolute number of cells within each sample. A “Z-Score” is a statistical measurement of a score's relationship to the mean in a group of scores. AZ-score of 0 means the score is the same as the mean. AZ-score can also be positive or negative, indicating whether it is above or below the mean and by how many standard deviations.

viable CD8+ population = experiment: T cell compound screen: CCR7+CD62L+ cells in the viable CD8+ population (flow cytometry); assay type: cell-based, human; details: 10 μM, about 6 days; for CD8 Hit: anti-CD3/anti-CD28 beads, hit = Z-score > +2 for percent or absolute number CCR7+CD62L+ in CD8+; for number or ratio of cells co-expressing CCR7 and CD62L: viable CD8+ population
Text: as §1, §2, §3, §4

SMILES | CD4 Hit (viable CD4+ population) | number or ratio of cells co-expressing CCR7 and CD62L (viable CD4+ population) | CD8 Hit (viable CD8+ population) | number or ratio of cells co-expressing CCR7 and CD62L (viable CD8+ population)
CCC(CO)Nc1nc(NCc2ccccc2)c2ncn(C(C)C)c2n1 (stereo in doubt) [Roscovitine, (S)-Isomer] | CD4 | increased |  | 
CCCc1c(-c2ccc(O)cc2)nn(-c2ccc(O)cc2)c1-c1ccc(O)cc1 [1,3,5-tris(4-hydroxyphenyl)-4-propyl-1H-pyrazole] | CD4 | increased |  | 
N.S=C(S)N1CCCC1 [1-Pyrrolidinecarbodithioic acid, ammonium salt] | CD4 | increased |  | 
CN(C)[C@@H]1C(=O)C(C(N)=O)=C(O)[C@@]2(O)C(=O)C3=C(O)c4c(O)ccc(Cl)c4[C@@H](O)[C@H]3C[C@@H]12.Cl [2-Naphthacenecarboxamide, 7-chloro-4-(dimethylamino)-1,4,4a,5,5a,6,11,12a-octahy] |  |  | CD8 | increased
Nc1ncn([C@@H]2O[C@H](CO)[C@@H](O)[C@H]2O)c(=O)n1 [5-Azacytidine] | CD4 | increased | CD8 | increased
Sc1ncnc2nc[nH]c12 [6-Mercaptopurine] | CD4 | increased | CD8 | increased
Oc1c(Cl)cc(Cl)c2cccnc12 [8-Quinolinol, 5,7-dichloro-] | CD4 | increased | CD8 | increased
Oc1c(I)cc(Cl)c2cccnc12 [8-Quinolinol, 5-chloro-7-iodo-] | CD4 | increased | CD8 | increased
CC[n+]1c(/C=C/C=C2/N(C)c3ccccc3C2(C)C)sc2ccccc21.[I-] [AC-93253 iodide] | CD4 | increased | CD8 | increased
COc1ccc(-c2cc3nccn3c(Nc3ncccc3C(N)=O)n2)cc1OC [BAY 61-3606] | CD4 | increased |  | 
COc1cc2nc(N3CCCN(C)CC3)nc(NC3CCN(Cc4ccccc4)CC3)c2cc1OC [BIX01294] | CD4 | increased |  | 
O=C(O)CN(CCN(CC(=O)O)CC(=O)O)CCN(CC(=O)O)CC(=O)O [Diethylenetriaminepentaacetic acid, pentasodium] | CD4 | increased | CD8 | increased
CC[N+](C)(C)c1cccc(O)c1 [Edrophonium chloride] |  |  | CD8 | increased
C[C@]12CC[C@@H]3c4ccc(O)cc4C[C@@H](CCCCCCCCC[S+]([O-])CCCC(F)(F)C(F)(F)F)[C@H]3[C@@H]1CC[C@@H]2O (stereo partly drawn) [Fulvestrant] |  |  | CD8 | increased
CC(C)C1CCC2(CO2)C2C(=O)OCC(C(=O)O)=CC12 (stereo not drawn) [Heptelidic acid] | CD4 | increased | CD8 | increased
O=C(N/N=C/c1ccc([N+](=O)[O-])o1)c1ccc(O)cc1 [Nifuroxazide] |  |  | CD8 | increased
C=CCc1cccc(/C=N/NC(=O)CN2CCN(Cc3ccccc3)CC2)c1O [PAC-1] | CD4 | increased |  | 
Oc1cccc(-c2nc(N3CCOCC3)c3oc4ncccc4c3n2)c1 [PI-103] | CD4 | increased | CD8 | increased
C=CC1=C(C)c2cc3[nH]c(cc4nc(cc5[nH]c(cc1n2)c(C)c5CCC(=O)O)C(CCC(=O)O)=C4C)c(C)c3C=C [Protoporphyrin IX disodium] | CD4 | increased |  | 
CN(C)c1ccc(C=C2C(=O)Nc3ccccc32)cc1 [SU 4312] |  |  | CD8 | increased
CN[C@H]1CC[C@@H](c2ccc(Cl)c(Cl)c2)c2ccccc21 [Sertraline] | CD4 |  | CD8 | 
CCCc1nc2c(C)cc(-c3nc4ccccc4n3C)cc2n1Cc1ccc(-c2ccccc2C(=O)O)cc1 [Telmisartan] | CD4 | increased |  | 
CC(C)(C)c1ccc(C(O)CCCN2CCC(C(O)(c3ccccc3)c3ccccc3)CC2)cc1 (stereo not drawn) [Terfenadine] | CD4 | increased |  | 
C/C=C(/C)C(=O)O[C@H]1C(C)=C2[C@H]([C@@H]1OC(=O)CCCCCCC)[C@@](C)(OC(C)=O)C[C@H](OC(=O)CCC)[C@@]1(O)[C@H]2OC(=O)[C@@]1(C)O [Thapsigargin] |  |  | CD8 | increased
O=C(O)Cc1cc(I)c(Oc2ccc(O)c(I)c2)c(I)c1 [Tiratricol] | CD4 | increased | CD8 | increased
NC1CCN(c2nc3c(cc2F)c(=O)c(C(=O)O)cn3-c2ccc(F)cc2F)C1 (stereo not drawn) [Tosufloxacin hydrochloride] | CD4 | increased |  | 
N#CC(=C(/N)Sc1ccccc1N)/C(C#N)=C(\N)Sc1ccccc1N [U0126] | CD4 | increased |  | 
